Test results taken from patent US10077261B2, “Imidazolin-5-one derivative useful as FASN inhibitors for the treatment of cancer” (Janssen Pharmaceutica NV, priority 2012, dated 2018).

How the values were obtained:
A2780 ovarian cells [1] = experiment: A2780 ovarian cell proliferation assay in lipid reduced medium, without palmitate (MTT); type: cell-based; conditions: Homo sapiens, A2780, 96 h; read-out: pIC50 A2780 Ovarian Cell, Without Palmitate (converted)
[2] = test system: PC-3M-Luc-C6 prostate cells; experiment: In vitro PC-3M-Luc-C6 prostate cell proliferation assay in lipid reduced medium; type: cell-based; conditions: 96 h, read-out: pIC50 PC-3M-Luc-C6 prostate cell (converted)
Protocol: PC-3M-Luc-C6 prostate cells were obtained from Xenogen Corporation. Cells were maintained in MEM supplemented with 10% Fetal Calf Serum (FCS, Hyclone), 2 mM glutamine, 1 mM sodium pyruvate, 1% BME vitamins (available from for example, Sigma Aldrich), 0.1 mM non Essential Amino Acid and 50 μg/ml Gentamicin. The cells were passaged twice a week.
The next day 10 μl test compound/DMSO diluted in medium was added (3E-5M, 1E-5M, 3E-6M, 1E-6M, 3E-7M, 1E-7M, 3E-8M, 1E-8M final concentration). Compounds were tested in duplicate. After 96 h incubation at 37° C., 5% CO2 25 μl ATP-glow mix was added. The plate was incubated for 30 min at 37° C. and luminescence was measured with the Envision.
Analysis: Determination of pIC50 Values
pIC50 values were calculated as follows.
where mLC and mHC are the means of the low control wells and high control wells on the plate, after manual exclusion of outliers. The relation between the % Controlmin values and concentration was fitted to a 4-parameter logistic curve using a non-linear least squares regression method to determine the pIC50 value. Outlying data points were excluded manually to get a correct fit. The pIC50 corresponds to −log 10(IC50), if the IC50 is expressed in molar units (http://www.ncbi.nlm.nih.gov/books/NBK91994). The IC50 parameter was always determined by non-linear regression, but one or more of the other parameters may have been held fixed on a relevant input value, such as 0 for the bottom values.

[3] = test system: LNCaP-Vancouver prostate cells; experiment: In vitro LNCaP Vancouver prostate cell proliferation assay in lipid reduced medium; type: cell-based; conditions: read-out: pIC50 LNCaP_Vancouver prostate cell (converted)
A2780 ovarian cells [4] = experiment: A2780 ovarian cell proliferation assay in lipid reduced medium, with palmitate (MTT); type: cell-based; conditions: Homo sapiens, A2780, 96 h; read-out: pIC50 A2780 Ovarian Cell, With Palmitate (converted)
Outline: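 In this palmitate-supplemented format, compound dilutions (30 μM down to 0.01 μM) are added to cells in lipid-reduced serum with 25 μM palmitate, 0.2% fatty-acid-free BSA and 0.25% ethanol. After four days (96 h) MTT absorbance at 544 nm is recorded and fitted by minimum sum of squares.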

[5] = biological target: Fatty Acid Synthase Keto-reductase Domain (FASN KR) (Homo sapiens, UniProt P49327); experiment: Fatty Acid Synthase keto-reductase domain (FASN KR) inhibition, NADPH oxidation at 340 nm
Protocol: After 20 minutes incubation at room temperature the plate was measured again (T2).
The decrease in absorbance was calculated as (Absorbance before incubation T1)−(Absorbance following incubation T2).
A plot of Controlmin versus test compound concentration was fitted to a 4-parameter logistic curve using a non-linear least squares regression method.

[6] = biological target: T1, hFASN enzyme (full length) (Homo sapiens, UniProt P49327); experiment: Fatty Acid Synthase (FASN) inhibition scintillation proximity assay; type: biochemical; conditions: for inhibition at 10 µM: read-out: Human FASN % inhibition @ 10 μM, 10 μM test compound; for IC50: read-out: Human FASN pIC50 (converted)
T1 construct: 10 μL hFASN enzyme (full length, 300 ng, purified in house); made in house
Outline: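 Proximity read-out: hydrophobic ^3H-palmitate formed from ^3H-acetyl-CoA and malonyl-CoA binds streptavidin imaging beads, imaged at 610±20 nm at least 24 h after stopping. Enzyme was in-house purified full-length hFASN, 300 ng, in pH 7.5 phosphate/DTT buffer; compound series 30 μM down to 0.01 μM, normalized to controls, 4-parameter fit.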

T1 sequence (P49327 whole entry): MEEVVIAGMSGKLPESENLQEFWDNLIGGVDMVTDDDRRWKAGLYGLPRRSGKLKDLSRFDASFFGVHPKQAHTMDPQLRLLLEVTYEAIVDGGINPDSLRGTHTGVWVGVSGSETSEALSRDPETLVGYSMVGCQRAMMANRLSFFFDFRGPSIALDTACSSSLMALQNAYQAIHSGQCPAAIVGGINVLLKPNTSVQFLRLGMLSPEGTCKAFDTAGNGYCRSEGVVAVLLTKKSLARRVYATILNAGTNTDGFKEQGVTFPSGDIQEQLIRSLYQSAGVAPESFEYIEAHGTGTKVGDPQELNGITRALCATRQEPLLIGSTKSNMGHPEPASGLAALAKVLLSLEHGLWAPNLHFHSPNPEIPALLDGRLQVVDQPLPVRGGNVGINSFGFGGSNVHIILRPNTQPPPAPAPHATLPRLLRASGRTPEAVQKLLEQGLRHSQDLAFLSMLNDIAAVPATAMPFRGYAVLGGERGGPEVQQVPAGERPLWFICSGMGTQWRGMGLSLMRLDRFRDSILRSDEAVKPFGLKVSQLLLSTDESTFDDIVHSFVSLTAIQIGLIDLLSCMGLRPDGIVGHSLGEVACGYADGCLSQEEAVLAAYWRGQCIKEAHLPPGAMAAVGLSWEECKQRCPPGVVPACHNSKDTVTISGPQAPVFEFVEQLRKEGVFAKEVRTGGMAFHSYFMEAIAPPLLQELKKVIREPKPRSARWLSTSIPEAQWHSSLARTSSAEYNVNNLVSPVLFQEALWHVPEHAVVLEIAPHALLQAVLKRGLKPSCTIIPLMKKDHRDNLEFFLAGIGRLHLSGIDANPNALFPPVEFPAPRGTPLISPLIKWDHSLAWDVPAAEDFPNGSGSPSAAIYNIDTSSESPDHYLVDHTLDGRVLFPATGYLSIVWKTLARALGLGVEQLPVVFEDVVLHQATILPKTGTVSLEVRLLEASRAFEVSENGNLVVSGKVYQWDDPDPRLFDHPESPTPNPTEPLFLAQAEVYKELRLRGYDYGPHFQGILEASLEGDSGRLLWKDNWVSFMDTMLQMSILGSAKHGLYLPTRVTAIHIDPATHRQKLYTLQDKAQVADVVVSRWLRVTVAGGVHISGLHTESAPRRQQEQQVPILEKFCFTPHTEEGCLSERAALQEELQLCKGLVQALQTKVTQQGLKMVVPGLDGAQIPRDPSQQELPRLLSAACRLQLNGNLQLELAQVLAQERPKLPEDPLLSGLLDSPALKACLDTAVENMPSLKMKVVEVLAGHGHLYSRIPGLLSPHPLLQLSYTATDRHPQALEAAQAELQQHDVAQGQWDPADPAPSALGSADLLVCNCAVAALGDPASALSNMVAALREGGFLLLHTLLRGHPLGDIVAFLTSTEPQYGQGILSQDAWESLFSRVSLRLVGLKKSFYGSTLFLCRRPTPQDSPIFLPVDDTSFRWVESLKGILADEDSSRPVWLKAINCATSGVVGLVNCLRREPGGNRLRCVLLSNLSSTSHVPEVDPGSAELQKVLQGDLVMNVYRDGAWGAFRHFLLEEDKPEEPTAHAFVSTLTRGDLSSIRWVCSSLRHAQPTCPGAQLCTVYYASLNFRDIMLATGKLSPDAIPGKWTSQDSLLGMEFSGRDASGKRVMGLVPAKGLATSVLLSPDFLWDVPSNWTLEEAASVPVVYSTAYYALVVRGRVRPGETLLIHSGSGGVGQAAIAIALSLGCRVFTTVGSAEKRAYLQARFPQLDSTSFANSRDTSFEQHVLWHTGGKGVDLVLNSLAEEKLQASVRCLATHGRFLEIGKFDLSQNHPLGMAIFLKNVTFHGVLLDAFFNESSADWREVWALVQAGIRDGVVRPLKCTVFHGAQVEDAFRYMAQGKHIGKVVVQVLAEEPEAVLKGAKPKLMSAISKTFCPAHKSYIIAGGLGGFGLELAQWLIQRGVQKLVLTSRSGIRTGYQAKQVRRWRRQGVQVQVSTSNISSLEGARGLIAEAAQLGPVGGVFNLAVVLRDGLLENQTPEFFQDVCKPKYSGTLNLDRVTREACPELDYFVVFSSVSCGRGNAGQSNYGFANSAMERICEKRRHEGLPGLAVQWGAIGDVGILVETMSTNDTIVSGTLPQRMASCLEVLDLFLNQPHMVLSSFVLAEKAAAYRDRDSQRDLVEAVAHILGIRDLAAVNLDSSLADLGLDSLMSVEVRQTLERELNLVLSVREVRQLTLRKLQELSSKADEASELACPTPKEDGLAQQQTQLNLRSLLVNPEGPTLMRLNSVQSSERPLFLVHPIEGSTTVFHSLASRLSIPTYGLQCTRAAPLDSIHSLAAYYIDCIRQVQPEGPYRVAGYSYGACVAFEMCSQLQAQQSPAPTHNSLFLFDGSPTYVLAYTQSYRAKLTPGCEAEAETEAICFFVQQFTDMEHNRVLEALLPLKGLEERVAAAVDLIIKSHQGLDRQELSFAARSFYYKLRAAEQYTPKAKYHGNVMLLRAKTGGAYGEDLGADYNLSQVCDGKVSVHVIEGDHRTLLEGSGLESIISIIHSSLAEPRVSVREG
Chain of Fatty Acid Synthase Keto-reductase Domain (FASN KR) (P49327 whole entry, the tested form may be a part): as the sequence (P49327 whole entry) above

Row | IC50 (A2780 ovarian cells [1]) [µM] | IC50 [2] [µM] | IC50 [3] [µM] | IC50 (A2780 ovarian cells [4]) [µM] | IC50 [5] [µM] | inhibition at 10 µM [6] [%] | IC50 [6] [µM] | SMILES
1 | 0.331 | 0.151 | 1.05 | > 10 |  |  |  | Cn1ncc2cc(-c3ccc(C4=NC5(CC5)C(=O)N4CC4CN(C(=O)C5CC5)C4)cc3)ccc21 [compound 39, 6-{[1-(Cyclopropylcarbonyl)azetidin-3-yl]methyl}-5-[4-(1-methyl-1H-indazol-5-yl)phenyl]-4,6-diazaspiro[2.4]hept-4-en-7-one]
2 | ~0.0776 | 0.0562 | 0.251 | > 10 |  |  |  | O=C(C1CC1)N1CC[C@@H](CN2C(=O)C3(CC3)N=C2c2ccc(-c3nc4ccccc4s3)cc2F)C1 [compound 252, (R)-5-(4-(benzo[d]thiazol-2-yl)-2-fluorophenyl)-6-((1-(cyclopropanecarbonyl)pyrrolidin-3-yl)methyl)-4,6-diazaspiro[2.4]hept-4-en-7-one]
3 | 0.0776 | ~0.117 | 0.295 | 6.03 |  |  |  | Cc1cc(-c2ccc3c(cnn3C)c2)ccc1C1=NC2(CC2)C(=O)N1C[C@@H]1CCN(C(=O)C2CC2)C1 [compound 262, (R)-6-((1-(cyclopropanecarbonyl)pyrrolidin-3-yl)methyl)-5-(2-methyl-4-(1-methyl-1H-indazol-5-yl)phenyl)-4,6-diazaspiro[2.4]hept-4-en-7-one]
4 |  | 0.0575 | 0.309 |  |  |  |  | O=C(C1CC1)N1CC[C@@H](CN2C(=O)C3(CC3)N=C2c2ccc(-c3c[nH]c4ccccc34)cc2)C1 [compound 314, (R)-5-(4-(1H-indol-3-yl)phenyl)-6-((1-(cyclopropanecarbonyl)pyrrolidin-3-yl)methyl)-4,6-diazaspiro[2.4]hept-4-en-7-one]
5 | ~0.0708 | 0.0525 |  | > 10 | 0.123 | 100 | 0.0661 | O=C(C1CC1)N1CC[C@@H](CN2C(=O)C3(CC3)N=C2c2ccc(-c3cccc(NS(=O)(=O)C4CC4)c3)cc2F)C1 [compound 318]
6 |  | 0.0813 | 0.24 |  |  | 98 |  | Cn1cnc2cc(-c3ccc(C4=NC5(CC5)C(=O)N4CC4CN(C(=O)C5CC5)C4)cc3)ccc21 [compound 343, 6-((1-(cyclopropanecarbonyl)azetidin-3-yl)mehtyl)-5-(4-(1-methyl-1H-benzo[d]imidazol-5-yl)phenyl)-4,6-diazaspiro[2.4]hept-4-en-7-one]
7 |  | 0.562 | 1.2 |  |  | 99 |  | O=C(C1CC1)N1CC(CN2C(=O)C3(CC3)N=C2c2ccc(-c3ccc4ccccc4n3)cc2)C1 [compound 345, 6-((1-(cyclopropanecarbonyl)azetidin-3-yl)methyl)-5-(4-(quinolin-2-yl)phenyl)-4,6-diazaspiro[2.4]hept-4-en-7-one]
8 | 0.257 | 0.513 |  | > 10 | 0.339 | 94 | 0.2 | O=C(C1CC1)N1CC(CN2C(=O)C3(CC3)N=C2c2ccc(-c3ccc4cc[nH]c4c3)c(F)c2)C1 [compound 442, 6-{[1-(Cyclopropylcarbonyl)azetidin-3-yl]methyl}-5-[3-fluoro-4-(1H-indol-6-yl)phenyl]-4,6-diazaspiro[2.4]hept-4-en-7-one]
9 | 0.794 | 0.851 |  | > 10 | 1.05 | 88 | 0.912 | O=C(C1CC1)N1CC(CN2C(=O)C3(CC3)N=C2c2ccc(-c3cccc4[nH]ncc34)c(F)c2)C1 [compound 443, 6-{[1-(Cyclopropylcarbonyl)azetidin-3-yl]methyl}-5-[3-fluoro-4-(1H-indazol-4-yl)phenyl]-4,6-diazaspiro[2.4]hept-4-en-7-one]
10 |  | 0.479 | 5.37 |  |  |  |  | O=C(C1CC1)N1CC[C@@H](CN2C(=O)C3(CC3)N=C2c2ccc(-c3nc4ccccc4[nH]3)cc2)C1 [compound 497, 5-[4-(1H-Benzimidazol-2-yl)phenyl]-6-{[(3R)-1-(cyclopropylcarbonyl)pyrrolidin-3-yl]methyl}-4,6-diazaspiro[2.4]hept-4-en-7-one]
11 | ~0.195 | ~0.309 |  | > 10 | 0.603 | 100 | 0.204 | Cc1cc(-c2ccc3c(cnn3C)c2)ccc1C1=NC2(CC2)C(=O)N1CC1CN(C(=O)C(C)(C)CO)C1 [compound 546, 6-{[1-(3-Hydroxy-2,2-dimethylpropanoyl)azetidin-3-yl]methyl}-5-[2-methyl-4-(1-methyl-1H-indazol-5-yl)phenyl]-4,6-diazaspiro[2.4]hept-4-en-7-one]
12 | ~0.2 | ~0.295 |  | 4.27 | 0.631 | 93 | 0.316 | Cc1cc(-c2ccc3cc(OC(C)C)ccc3c2)ccc1C1=NC2(CC2)C(=O)N1CC1CN(C(=O)C2(C)CC2)C1 [compound 581, 6-({1-[(1-Methylcyclopropyl)carbonyl]azetidin-3-yl}methyl)-5-{2-methyl-4-[6-(1-methylethoxy)naphthalen-2-yl]phenyl}-4,6-diazaspiro[2.4]hept-4-en-7-one]
13 | 0.0832 | 0.1 |  | > 10 | 0.162 | 99 | 0.112 | O=C(Nc1cccc(-c2ccc(C3=NC4(CC4)C(=O)N3C[C@@H]3CCN(C(=O)C4CC4)C3)c(F)c2)c1)C1CC1 [compound 585, N-[4′-(6-{[(3R)-1-(Cyclopropylcarbonyl)pyrrolidin-3-yl]methyl}-7-oxo-4,6-diazaspiro[2.4]hept-4-en-5-yl)-3′-fluorobiphenyl-3-yl]cyclopropanecarboxamide]
14 | ~0.851 | 1.02 |  | > 10 | 1.66 | 93 | 0.525 | Cc1cc(-c2ccc3c(c2)c(CO)nn3C)ccc1C1=NC2(CC2)C(=O)N1CC1CN(C(=O)C2CC2)C1 [compound 586, 6-{[1-(Cyclopropylcarbonyl)azetidin-3-yl]methyl}-5-{4-[3-(hydroxymethyl)-1-methyl-1H-indazol-5-yl]-2-methylphenyl}-4,6-diazaspiro[2.4]hept-4-en-7-one]
15 | ~0.347 | 0.372 |  | > 10 | 1.05 | 93 | 0.195 | Cc1cc(-c2ccc3c(c2)c(Cl)nn3C)ccc1C1=NC2(CC2)C(=O)N1CC1CN(C(=O)C2CC2)C1 [compound 591, 5-[4-(3-Chloro-1-methyl-1H-indazol-5-yl)-2-methylphenyl]-6-{[1-(cyclopropylcarbonyl)azetidin-3-yl]methyl}-4,6-diazaspiro[2.4]hept-4-en-7-one]
16 | 0.457 | ~0.759 |  | 6.31 | 0.589 | 102 | 0.186 | Cc1cc(-c2ccc3cc(C)c(Cl)nc3c2)ccc1C1=NC2(CC2)C(=O)N1CC1CN(C(=O)C2(C)CC2)C1 [compound 596]
17 |  | 0.708 | ~3.72 |  |  |  |  | COC(=O)N1CC2(C1)N=C(c1ccc(-c3ccc4c(cnn4C)c3)cc1)N(C[C@@H]1CCN(C(=O)C3CC3)C1)C2=O [compound 737, Methyl 7-{[(3R)-1-(cyclopropylcarbonyl)pyrrolidin-3-yl]methyl}-6-[4-(1-methyl-1H-indazol-5-yl)phenyl]-8-oxo-2,5,7-triazaspiro[3.4]oct-5-ene-2-carboxylate]
18 | 1.55 | 0.759 |  | > 10 | 0.603 | 97 | 0.138 | COCCN1CCC2(CC1)N=C(c1ccc(-c3ccc4occc4c3)cc1)N(C[C@@H]1CCN(C(=O)C3CC3)C1)C2=O [compound 749, 2-[4-(1-Benzofurann-5-yl)phenyl]-3-{[(3R)-1-(cyclopropylcarbonyl)pyrrolidin-3-yl]methyl}-8-(2-methoxyethyl)-1,3,8-triazaspiro[4.5]dec-1-en-4-one]
